Values of other authors in Sander's compilation of Henry's law constants (doi:10.1063/1.1564818).

Test: Henry solubility constant Hcp at 298.15 K (mol/(m3 Pa))
Settings: reference: Fernández-Prini et al. (2003); cited value

Row | Compound | Henry solubility constant Hcp
1 | [C-]#[O+] [carbon monoxide] | 9.7e-06
2 | [Ar] [argon] | 1.4e-05
3 | [He] [helium] | 3.9e-06
4 | [Xe] [xenon] | 4.4e-05
5 | [Kr] [krypton] | 2.5e-05

The next lines start with the values.

Row | Henry solubility constant Hcp | Compound
6 | 2.5e-06 | FS(F)(F)(F)(F)F [sulfur hexafluoride]
7 | 7.8e-06 | [HH] [hydrogen]
8 | 4.5e-06 | [Ne] [neon]
9 | 0.00033 | O=C=O [carbon dioxide]
10 | 1.3e-05 | O=O [oxygen]
